Experiments:
[1] = target: Rsk1(h) (Homo sapiens, UniProt Q15418); experiment: Kinase panel, residual activity; format: biochemical; settings: read-out: Percent residual activity
Procedure: (§1) In this panel of 124 kinases, 18 of the 19 kinases identified as having an active site cysteine were inhibited to some extent by hypothemycin at a concentration of 0.2 μM and/or 2 μM.

[2] = target: PKA(h) (Homo sapiens, UniProt P17612); experiment: Kinase panel, residual activity; format: biochemical; settings: read-out: Percent residual activity
Procedure: as §1

[3] = target: Syk(h) (Homo sapiens, UniProt P43405); experiment: Kinase panel, residual activity; format: biochemical; settings: read-out: Percent residual activity
Procedure: as §1

[4] = target: MAPK2(h) (Homo sapiens, UniProt P28482); experiment: Kinase panel, residual activity; format: biochemical; settings: read-out: Percent residual activity
Procedure: as §1

[5] = target: BRK(h) (Homo sapiens, UniProt Q13882); experiment: Kinase panel, residual activity; format: biochemical; settings: read-out: Percent residual activity
Procedure: as §1

[6] = target: Rsk3(h) (Homo sapiens, UniProt Q15349); experiment: Kinase panel, residual activity; format: biochemical; settings: read-out: Percent residual activity
Procedure: as §1

[7] = target: Lck(h) (Homo sapiens, UniProt P06239); experiment: Kinase panel, residual activity; format: biochemical; settings: read-out: Percent residual activity
Procedure: as §1

[8] = target: Tie2(h) (Homo sapiens, UniProt Q02763); experiment: Kinase panel, residual activity; format: biochemical; settings: read-out: Percent residual activity
Procedure: as §1

[9] = target: CK1δ(h) (Homo sapiens, UniProt P48730); experiment: Kinase panel, residual activity; format: biochemical; settings: read-out: Percent residual activity
Procedure: as §1

[10] = target: TrkA(h) (Homo sapiens, UniProt P04629); experiment: Kinase panel, residual activity; format: biochemical; settings: read-out: Percent residual activity
Procedure: as §1

[11] = target: MST2(h) (Homo sapiens, UniProt Q13188); experiment: Kinase panel, residual activity; format: biochemical; settings: read-out: Percent residual activity
Procedure: as §1

[12] = target: Fer(h) (Homo sapiens, UniProt P16591); experiment: Kinase panel, residual activity; format: biochemical; settings: read-out: Percent residual activity
Procedure: as §1

[13] = target: Bmx(h) (Homo sapiens, UniProt P51813); experiment: Kinase panel, residual activity; format: biochemical; settings: read-out: Percent residual activity
Procedure: as §1

[14] = target: CDK7/cyclinH/MAT1(h) (Homo sapiens, UniProt P50613); experiment: Kinase panel, residual activity; format: biochemical; settings: read-out: Percent residual activity
Procedure: as §1

[15] = target: IR(h) (Homo sapiens, UniProt P06213); experiment: Kinase panel, residual activity; format: biochemical; settings: read-out: Percent residual activity
Procedure: as §1

[16] = target: MAPKAP-K2(h) (Homo sapiens, UniProt P49137); experiment: Kinase panel, residual activity; format: biochemical; settings: read-out: Percent residual activity
Procedure: as §1

[17] = target: Lyn(h) (Homo sapiens, UniProt P07948); experiment: Kinase panel, residual activity; format: biochemical; settings: read-out: Percent residual activity
Procedure: as §1

[18] = target: Yes(h) (Homo sapiens, UniProt P07947); experiment: Kinase panel, residual activity; format: biochemical; settings: read-out: Percent residual activity
Procedure: as §1

[19] = target: Abl(h) (Homo sapiens, UniProt P00519); experiment: Kinase panel, residual activity; format: biochemical; settings: read-out: Percent residual activity
Procedure: as §1

[20] = target: PKCβII(h) (Homo sapiens, UniProt P05771); experiment: Kinase panel, residual activity; format: biochemical; settings: read-out: Percent residual activity
Procedure: as §1

[21] = target: Pim-1(h) (Homo sapiens, UniProt P11309); experiment: Kinase panel, residual activity; format: biochemical; settings: read-out: Percent residual activity
Procedure: as §1

[22] = target: PKCβI(h) (Homo sapiens, UniProt P05771); experiment: Kinase panel, residual activity; format: biochemical; settings: read-out: Percent residual activity
Procedure: as §1

[23] = target: PKBα(h) (Homo sapiens, UniProt P31749); experiment: Kinase panel, residual activity; format: biochemical; settings: read-out: Percent residual activity
Procedure: as §1

[24] = target: MKK7β(h) (Homo sapiens, UniProt O14733); experiment: Kinase panel, residual activity; format: biochemical; settings: read-out: Percent residual activity
Procedure: as §1

[25] = target: IKKβ(h) (Homo sapiens, UniProt O14920); experiment: Kinase panel, residual activity; format: biochemical; settings: read-out: Percent residual activity
Procedure: as §1

[26] = target: ROCK-II(h) (Homo sapiens, UniProt O75116); experiment: Kinase panel, residual activity; format: biochemical; settings: read-out: Percent residual activity
Procedure: as §1

[27] = target: PKBβ(h) (Homo sapiens, UniProt P31751); experiment: Kinase panel, residual activity; format: biochemical; settings: read-out: Percent residual activity
Procedure: as §1

[28] = target: SAPK3(h) (Homo sapiens, UniProt P53778); experiment: Kinase panel, residual activity; format: biochemical; settings: read-out: Percent residual activity
Procedure: as §1

[29] = target: CDK3/cyclinE(h) (Homo sapiens, UniProt Q00526); experiment: Kinase panel, residual activity; format: biochemical; settings: read-out: Percent residual activity
Procedure: as §1

[30] = target: PKCθ(h) (Homo sapiens, UniProt Q04759); experiment: Kinase panel, residual activity; format: biochemical; settings: read-out: Percent residual activity
Procedure: as §1

[31] = target: SAPK2b(h) (Homo sapiens, UniProt Q15759); experiment: Kinase panel, residual activity; format: biochemical; settings: read-out: Percent residual activity
Procedure: as §1

[32] = target: Plk3(h) (Homo sapiens, UniProt Q9H4B4); experiment: Kinase panel, residual activity; format: biochemical; settings: read-out: Percent residual activity
Procedure: as §1

[33] = target: EphB4(h) (Homo sapiens, UniProt P54760); experiment: Kinase panel, residual activity; format: biochemical; settings: read-out: Percent residual activity
Procedure: as §1

[34] = target: Rsk2(h) (Homo sapiens, UniProt P51812); experiment: Kinase panel, residual activity; format: biochemical; settings: read-out: Percent residual activity
Procedure: as §1

[35] = target: Arg(h) (Homo sapiens, UniProt P42684); experiment: Kinase panel, residual activity; format: biochemical; settings: read-out: Percent residual activity
Procedure: as §1

[36] = target: Fgr(h) (Homo sapiens, UniProt P09769); experiment: Kinase panel, residual activity; format: biochemical; settings: read-out: Percent residual activity
Procedure: as §1

[37] = system: ERK1/2 activation in human T cells; settings: tested at 0.3 to 3 μM; cited from earlier work

TrkA(h), sequence (P04629 33-796): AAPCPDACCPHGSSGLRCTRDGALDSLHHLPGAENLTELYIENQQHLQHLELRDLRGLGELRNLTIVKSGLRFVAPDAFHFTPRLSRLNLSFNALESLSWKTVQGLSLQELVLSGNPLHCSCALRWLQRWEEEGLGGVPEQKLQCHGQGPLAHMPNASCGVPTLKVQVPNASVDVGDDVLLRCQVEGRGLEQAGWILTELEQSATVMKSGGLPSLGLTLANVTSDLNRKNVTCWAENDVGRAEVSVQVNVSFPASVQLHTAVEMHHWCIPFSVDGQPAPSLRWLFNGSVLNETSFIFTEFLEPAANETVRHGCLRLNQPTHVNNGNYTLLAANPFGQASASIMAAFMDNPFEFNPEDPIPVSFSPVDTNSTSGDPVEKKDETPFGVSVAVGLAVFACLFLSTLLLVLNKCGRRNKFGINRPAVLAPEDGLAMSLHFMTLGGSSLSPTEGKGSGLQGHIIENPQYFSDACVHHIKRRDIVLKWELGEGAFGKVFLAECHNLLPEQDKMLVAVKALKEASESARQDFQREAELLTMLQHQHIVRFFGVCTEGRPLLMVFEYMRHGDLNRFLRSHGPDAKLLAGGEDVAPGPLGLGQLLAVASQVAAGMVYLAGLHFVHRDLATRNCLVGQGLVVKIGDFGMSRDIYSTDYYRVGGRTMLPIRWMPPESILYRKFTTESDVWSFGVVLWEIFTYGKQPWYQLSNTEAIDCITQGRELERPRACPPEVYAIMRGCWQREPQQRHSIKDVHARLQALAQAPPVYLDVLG
IKKβ(h), sequence (O14920 whole entry): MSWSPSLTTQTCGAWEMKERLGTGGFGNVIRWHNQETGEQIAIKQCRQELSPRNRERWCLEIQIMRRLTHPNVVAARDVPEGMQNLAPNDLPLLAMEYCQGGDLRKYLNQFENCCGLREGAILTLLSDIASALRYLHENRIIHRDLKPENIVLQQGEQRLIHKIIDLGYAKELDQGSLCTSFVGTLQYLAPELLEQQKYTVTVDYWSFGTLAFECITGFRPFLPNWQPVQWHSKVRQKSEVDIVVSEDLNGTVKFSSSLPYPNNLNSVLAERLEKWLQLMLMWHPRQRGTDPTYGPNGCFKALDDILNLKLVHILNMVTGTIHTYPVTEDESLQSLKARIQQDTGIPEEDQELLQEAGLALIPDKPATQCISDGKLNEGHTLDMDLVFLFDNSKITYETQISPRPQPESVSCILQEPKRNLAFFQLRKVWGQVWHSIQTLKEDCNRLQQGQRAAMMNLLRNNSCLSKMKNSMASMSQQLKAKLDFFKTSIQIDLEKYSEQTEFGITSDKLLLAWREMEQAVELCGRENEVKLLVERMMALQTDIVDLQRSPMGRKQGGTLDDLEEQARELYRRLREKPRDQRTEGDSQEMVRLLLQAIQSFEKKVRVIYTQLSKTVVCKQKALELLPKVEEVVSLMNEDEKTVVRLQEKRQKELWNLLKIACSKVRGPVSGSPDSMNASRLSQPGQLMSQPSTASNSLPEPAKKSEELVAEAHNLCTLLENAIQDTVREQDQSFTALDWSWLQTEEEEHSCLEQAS
MAPK2(h), sequence (P28482 whole entry): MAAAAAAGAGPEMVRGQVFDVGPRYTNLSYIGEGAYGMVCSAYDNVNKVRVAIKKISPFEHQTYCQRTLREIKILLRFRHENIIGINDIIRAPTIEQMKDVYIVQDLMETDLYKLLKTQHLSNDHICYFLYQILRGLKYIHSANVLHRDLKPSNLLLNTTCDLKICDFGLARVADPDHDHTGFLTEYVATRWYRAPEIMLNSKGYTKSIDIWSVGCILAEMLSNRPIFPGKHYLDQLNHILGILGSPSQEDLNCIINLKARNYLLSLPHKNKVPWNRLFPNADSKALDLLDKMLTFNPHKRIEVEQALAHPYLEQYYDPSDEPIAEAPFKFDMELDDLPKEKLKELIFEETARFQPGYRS
Lyn(h), sequence (P07948 whole entry): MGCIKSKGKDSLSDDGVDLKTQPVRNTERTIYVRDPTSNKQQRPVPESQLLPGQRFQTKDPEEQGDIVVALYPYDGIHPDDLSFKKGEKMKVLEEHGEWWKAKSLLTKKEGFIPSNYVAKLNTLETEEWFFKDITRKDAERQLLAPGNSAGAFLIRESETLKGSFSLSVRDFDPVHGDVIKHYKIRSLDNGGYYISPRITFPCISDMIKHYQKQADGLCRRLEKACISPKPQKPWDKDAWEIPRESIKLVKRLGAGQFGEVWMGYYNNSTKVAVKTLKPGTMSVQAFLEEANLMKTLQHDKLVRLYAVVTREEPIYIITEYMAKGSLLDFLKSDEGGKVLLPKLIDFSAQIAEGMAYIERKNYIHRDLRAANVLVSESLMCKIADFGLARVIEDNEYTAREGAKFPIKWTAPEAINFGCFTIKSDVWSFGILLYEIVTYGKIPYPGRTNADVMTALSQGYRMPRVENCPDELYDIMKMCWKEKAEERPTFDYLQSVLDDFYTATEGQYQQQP
MKK7β(h), sequence (O14733 whole entry): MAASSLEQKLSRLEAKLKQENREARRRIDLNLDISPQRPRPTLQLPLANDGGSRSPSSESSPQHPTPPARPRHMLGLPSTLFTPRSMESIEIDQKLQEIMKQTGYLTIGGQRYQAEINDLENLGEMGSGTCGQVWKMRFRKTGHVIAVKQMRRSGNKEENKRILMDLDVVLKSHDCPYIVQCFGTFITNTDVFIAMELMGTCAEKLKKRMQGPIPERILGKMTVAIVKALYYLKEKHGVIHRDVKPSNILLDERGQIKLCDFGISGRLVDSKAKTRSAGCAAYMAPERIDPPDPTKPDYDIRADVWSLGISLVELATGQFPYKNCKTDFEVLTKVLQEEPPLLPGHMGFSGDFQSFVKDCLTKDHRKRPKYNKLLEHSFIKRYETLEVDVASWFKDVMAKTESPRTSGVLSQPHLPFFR
Arg(h), sequence (P42684 whole entry): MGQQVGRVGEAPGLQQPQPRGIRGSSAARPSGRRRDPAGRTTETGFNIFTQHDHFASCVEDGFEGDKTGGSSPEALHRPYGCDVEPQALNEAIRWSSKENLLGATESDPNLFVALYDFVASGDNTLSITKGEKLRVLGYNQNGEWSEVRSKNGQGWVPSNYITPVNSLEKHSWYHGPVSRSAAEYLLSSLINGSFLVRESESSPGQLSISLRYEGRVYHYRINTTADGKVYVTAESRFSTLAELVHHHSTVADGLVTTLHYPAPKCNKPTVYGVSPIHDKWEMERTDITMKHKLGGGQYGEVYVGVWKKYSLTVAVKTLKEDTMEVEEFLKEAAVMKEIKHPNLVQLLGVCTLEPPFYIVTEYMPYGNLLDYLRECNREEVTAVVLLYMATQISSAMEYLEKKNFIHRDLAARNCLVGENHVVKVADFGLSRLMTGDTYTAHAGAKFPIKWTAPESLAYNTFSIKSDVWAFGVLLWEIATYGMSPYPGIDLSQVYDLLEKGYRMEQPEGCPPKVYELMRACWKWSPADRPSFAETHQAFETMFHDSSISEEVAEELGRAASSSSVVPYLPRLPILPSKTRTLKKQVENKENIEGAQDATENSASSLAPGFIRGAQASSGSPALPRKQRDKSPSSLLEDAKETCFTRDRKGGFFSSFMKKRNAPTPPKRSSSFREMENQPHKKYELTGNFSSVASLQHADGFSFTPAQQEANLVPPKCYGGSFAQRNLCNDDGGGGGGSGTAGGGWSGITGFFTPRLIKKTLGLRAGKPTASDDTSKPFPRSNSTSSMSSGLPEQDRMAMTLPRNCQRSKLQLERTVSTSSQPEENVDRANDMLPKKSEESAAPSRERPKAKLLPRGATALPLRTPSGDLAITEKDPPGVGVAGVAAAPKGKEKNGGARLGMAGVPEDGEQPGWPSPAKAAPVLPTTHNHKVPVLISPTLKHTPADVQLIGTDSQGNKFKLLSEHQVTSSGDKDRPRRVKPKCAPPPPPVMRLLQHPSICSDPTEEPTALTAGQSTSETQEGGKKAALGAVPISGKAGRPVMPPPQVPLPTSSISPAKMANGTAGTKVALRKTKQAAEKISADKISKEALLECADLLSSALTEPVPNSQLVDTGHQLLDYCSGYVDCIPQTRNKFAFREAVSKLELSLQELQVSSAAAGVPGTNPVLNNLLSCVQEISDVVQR
EphB4(h), sequence (P54760 16-987): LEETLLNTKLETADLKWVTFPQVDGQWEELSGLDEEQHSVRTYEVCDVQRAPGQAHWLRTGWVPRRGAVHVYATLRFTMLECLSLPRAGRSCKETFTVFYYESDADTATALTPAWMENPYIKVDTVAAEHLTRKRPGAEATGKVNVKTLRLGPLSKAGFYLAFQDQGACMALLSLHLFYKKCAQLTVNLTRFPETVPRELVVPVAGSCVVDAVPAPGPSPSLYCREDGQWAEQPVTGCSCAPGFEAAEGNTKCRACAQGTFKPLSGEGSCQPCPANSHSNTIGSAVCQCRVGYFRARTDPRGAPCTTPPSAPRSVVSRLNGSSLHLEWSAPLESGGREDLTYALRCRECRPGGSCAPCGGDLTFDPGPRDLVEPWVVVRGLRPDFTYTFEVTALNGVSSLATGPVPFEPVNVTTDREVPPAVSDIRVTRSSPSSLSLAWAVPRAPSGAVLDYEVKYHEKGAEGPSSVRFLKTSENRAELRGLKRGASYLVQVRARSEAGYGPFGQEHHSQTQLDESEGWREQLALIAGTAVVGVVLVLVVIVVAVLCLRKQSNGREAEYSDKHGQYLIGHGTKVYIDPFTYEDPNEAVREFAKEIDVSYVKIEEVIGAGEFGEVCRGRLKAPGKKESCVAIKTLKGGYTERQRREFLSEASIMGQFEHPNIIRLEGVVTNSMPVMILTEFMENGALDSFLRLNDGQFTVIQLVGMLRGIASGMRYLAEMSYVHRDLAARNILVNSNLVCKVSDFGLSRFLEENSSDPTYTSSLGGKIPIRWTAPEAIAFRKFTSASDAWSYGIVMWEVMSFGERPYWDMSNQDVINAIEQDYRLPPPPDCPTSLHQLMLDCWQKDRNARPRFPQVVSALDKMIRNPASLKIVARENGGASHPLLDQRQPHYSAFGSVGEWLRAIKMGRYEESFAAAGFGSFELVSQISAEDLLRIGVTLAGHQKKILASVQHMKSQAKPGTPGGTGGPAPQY

Work on `COc1cc(O)c2c(c1)[C@H]1O[C@@H]1C[C@H](O)[C@H](O)C(=O)/C=C\C[C@H](C)OC2=O` [Hypothemycin, hypothemycin] yielded a remaining activity at 0.2 µM [1] of 100%, a remaining activity at 0.2 µM [2] of 108% and a remaining activity at 0.2 µM [3] of 105%. For the same compound, the remaining activity at 0.2 µM ([4]; 0.2 μM) was 79%, the remaining activity at 2 µM ([4]; 2.0 μM) was 5% and the remaining activity at 0.2 µM [5] was 89%. For the same compound, the remaining activity at 0.2 µM [6] was 94%, the remaining activity at 0.2 µM [7] was 98% and the remaining activity at 0.2 µM [8] was 93%. For the same compound, the remaining activity at 0.2 µM [9] was 105%, the remaining activity at 0.2 µM ([10]; 0.2 μM) was 22% and the remaining activity at 2 µM ([10]; 2.0 μM) was 1%. The remaining activity at 0.2 µM [11] was 94%, the remaining activity at 0.2 µM [12] was 102% and the remaining activity at 0.2 µM [13] was 99%. For the same compound, the remaining activity at 0.2 µM [14] was 101%, the remaining activity at 0.2 µM [15] was 100% and the remaining activity at 0.2 µM [16] was 98%. For the same compound, the remaining activity at 0.2 µM ([17]; 0.2 μM) was 82%, the remaining activity at 2 µM ([17]; 2.0 μM) was 83% and the remaining activity at 0.2 µM [18] was 99%. The remaining activity at 0.2 µM [19] was 98%, the remaining activity at 0.2 µM [20] was 97% and the remaining activity at 0.2 µM [21] was 100%. The remaining activity at 0.2 µM [22] was 99%, the remaining activity at 0.2 µM [23] was 153% and the remaining activity at 0.2 µM ([24]; 0.2 μM) was 85%. It also gave a remaining activity at 2 µM ([24]; 2.0 μM) of 41%, a remaining activity at 0.2 µM ([25]; 0.2 μM) of 81% and a remaining activity at 2 µM ([25]; 2.0 μM) of 94%. For the same compound, the remaining activity at 0.2 µM [26] was 104%, the remaining activity at 0.2 µM [27] was 91% and the remaining activity at 0.2 µM [28] was 104%. It also gave a remaining activity at 0.2 µM [29] of 95%, a remaining activity at 0.2 µM [30] of 104% and a remaining activity at 0.2 µM [31] of 104%. It also gave a remaining activity at 0.2 µM [32] of 101%, a remaining activity at 0.2 µM [33] of 82% and a remaining activity at 0.2 µM [34] of 91%. For the same compound, the remaining activity at 0.2 µM [35] was 98%, the remaining activity at 0.2 µM [36] was 100% and the “inhibition of the activation of ERK1/2” value [37] was “inhibit”.
